Assay results taken from publication PMC11784652, “Two complementing in vivo selection systems based on CCA-trimming exonucleases as a tool to monitor, select and evaluate enzymatic features of tRNA nucleotidyltransferases” (RNA Biology, 2025).
Numbering of substitutions follows the chain as printed.

Assays:
[1] = target: T1, HsaCCA (human CCA-adding enzyme, tRNA nucleotidyltransferase) (Homo sapiens, UniProt Q96Q11); test: in vitro nucleotide incorporation on […]-labelled yeast tRNA-Phe-CC; type: biochemical; conditions: 1 mM ATP, A-addition, co-substrate tRNA-Phe-CC, 37 °C; no binding to apoenzyme detected by DRaCALA
T1 construct: gene TRNT1; N-terminal His-tag, pET28a(+), expressed in E. coli BL21(DE3) delta-cca
T1 sequence (Q96Q11 30-434): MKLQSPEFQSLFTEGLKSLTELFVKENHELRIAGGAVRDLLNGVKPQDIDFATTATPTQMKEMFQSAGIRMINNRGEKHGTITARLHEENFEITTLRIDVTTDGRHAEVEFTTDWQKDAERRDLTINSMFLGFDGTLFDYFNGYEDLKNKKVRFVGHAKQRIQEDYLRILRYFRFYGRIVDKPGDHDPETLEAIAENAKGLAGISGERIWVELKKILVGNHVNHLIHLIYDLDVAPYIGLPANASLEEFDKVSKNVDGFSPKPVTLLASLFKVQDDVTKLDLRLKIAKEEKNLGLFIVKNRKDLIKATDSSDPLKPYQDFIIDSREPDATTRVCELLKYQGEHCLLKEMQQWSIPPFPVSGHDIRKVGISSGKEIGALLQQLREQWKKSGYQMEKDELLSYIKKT

[2] = target: T2, HsaCCA (human CCA-adding enzyme, tRNA nucleotidyltransferase) (Homo sapiens, UniProt Q96Q11, E193G); test: DRaCALA (nitrocellulose radioligand spot assay); type: binding; conditions: 4 °C, 10 min, HEPES/KOH pH 7.6, 30 mM KCl, 6 mM MgCl2, no tRNA; 1 nM labelled compound (α-32P)
T2 construct: gene TRNT1; N-terminal His-tag, pET28a(+), expressed in E. coli BL21(DE3) delta-cca
T2 sequence (Q96Q11 30-434 E193G): T1 sequence (Q96Q11 30-434) with E164G

[3] = target: T1, HsaCCA (human CCA-adding enzyme, tRNA nucleotidyltransferase); test: DRaCALA (nitrocellulose radioligand spot assay); type: binding; conditions: 4 °C, 10 min, HEPES/KOH pH 7.6, 30 mM KCl, 6 mM MgCl2, no tRNA; 1 nM labelled compound (α-32P)

Row | Compound | in vitro nucleotide incorporation on 32P-labelled yeast tRNA-Phe-CC [1] | DRaCALA (nitrocellulose radioligand spot assay) [2] | DRaCALA (nitrocellulose radioligand spot assay) [3]
1 | Nc1ncnc2c1ncn2[C@@H]1O[C@H](COP(=O)(O)OP(=O)(O)OP(=O)(O)O)[C@@H](O)[C@H]1O [ATP] | Both enzyme versions readily add the terminal A if NTPs (N) or only ATP | – | –
2 | Nc1ccn([C@@H]2O[C@H](COP(=O)(O)OP(=O)(O)OP(=O)(O)O)[C@@H](O)[C@H]2O)c(=O)n1 [CTP] | – | CTP binding of HsaCCA E164G seems to be less efficient compared to the wt enzyme | Both HsaCCA wt and HsaCCA E164G showed robust interaction with CTP
